Read-outs that look alike come from different tables or passages of the source. Positions of bridges follow the written chain, without caps; N, C: chain ends. Non-standard residues stand in square brackets, D forms with d. Residues, ends and D or L forms follow the SMILES beside them. ξ: configuration not given here. Phe(4-Cl) = N[C@@H](Cc1ccc(Cl)cc1)C(=O)O; NMeF = CN[C@@H](Cc1ccccc1)C(=O)O; 3Thi = N[C@@H](Cc1ccsc1)C(=O)O; NMeNle = CCCC[C@H](NC)C(=O)O; ξY = NC(Cc1ccc(O)cc1)C(=O)O; NMeA = CN[C@@H](C)C(=O)O; ξNMeA = CNC(C)C(=O)O; ξC = NC(CS)C(=O)O; Sar = CNCC(=O)O
Assays:
Hu PD-L1/PD-1 = Hu PD-L1/PD-1 (Homo sapiens, UniProt Q9NZQ7); assay: Cell binding assay Hu PD-L1/PD-1 (Tables 11-13, cell line not given); format: cell-based
Procedure: The ability of the macrocyclic peptides of the present disclosure to bind to Jurkat, mouse B cell line (LK35.2), and a human lung adenocarcinoma cell line (L2987) was investigated. Jurkat-PD-1 Cell Binding Assay. Phycoerythrin (PE) was covalently linked to the Ig epitope tag of human PD-L1-Ig and fluorescently-labeled PD-L1-Ig was used for binding studies with a Jurkat cell line over-expressing human PD-1 (Jurkat-PD-1). […] Cells were washed 3× in dPBS. Cells were resuspended in 200 μl of dPBS and binding was measured by flow cytometry. LK35.2-hPD-L1 Cell Binding Assay. Phycoerythrin (PE) was covalently linked to the Ig eptitope tag of human PD-1-Ig and fluorescently-labeled PD-1-Ig was used for binding studies with a mouse B cell line (LK35.2) stably over-expressing human PD-L1 (LK35.2-hPD-L1). Briefly, […] LK35.2-hPD-L1 cells were pre-incubated with inhibitor for 15 m in a 30 μl volume of RPMI supplemented with 2% fetal calf serum. 20 μl of PE-labeled PD-1-Ig (2 nM final), diluted in RPMI supplemented with 2% fetal calf serum, was dispensed on top of cells and inhibitor and binding was allowed to take place for 1 h at room temperature. Cells were washed 3× in dPBS. Cells were resuspended in 200 μl of dPBS and binding was measured by flow cytometry. L2987 Cellomics Cell Binding Assay. Phycoerythrin (PE) was covalently linked to the Ig eptitope tag of human PD-1-Ig and fluorescently-labeled PD-1-Ig was used for binding studies with a human lung adenocarcinoma cell line (L2987) which naturally expresses PD-L1. […] The following day, inhibitors were diluted in serum-free DMEM and 25 μl was dispensed on top of cells. […] Samples were incubated for 1 h at 37° C. followed by 2 washes in dPBS and fixation for 30 m with 4% paraformaldehyde. Samples were further washed 2× in dPBS. Hoechst (final 1 μg/ml) was added to final wash to stain nuclei. Plates were processed using a Cellomics […]®.

Human PD-L1/PD-1 = target: T1, Human PD-L1/PD-1 (Homo sapiens, UniProt Q9NZQ7); assay: HTRF PD-1-Ig/PD-L1-His binding assay (human PD-L1); conditions: read-out: HTRF Human PD-L1/PD-1 Binding Assay IC50
T1 construct: made in house; host or cells: HEK293T
Outline: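 Soluble Fc-fused PD-1 and His-tagged PD-L1 (truncated before the transmembrane region) were combined in dPBS with 0.1% (w/v) BSA and 0.05% (v/v) Tween-20. Binding was read by HTRF using europium cryptate anti-Ig antibody (1 nM final) and APC anti-His antibody (20 nM final).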

[1] = Table 8, Compound No. 1 variant macrocyclic peptides
[2] = Table 13, Compound No. 71 series
[3] = Table 9, Compound No. 71 variant macrocyclic peptides

Chain of Hu PD-L1/PD-1 (Q9NZQ7 19-290): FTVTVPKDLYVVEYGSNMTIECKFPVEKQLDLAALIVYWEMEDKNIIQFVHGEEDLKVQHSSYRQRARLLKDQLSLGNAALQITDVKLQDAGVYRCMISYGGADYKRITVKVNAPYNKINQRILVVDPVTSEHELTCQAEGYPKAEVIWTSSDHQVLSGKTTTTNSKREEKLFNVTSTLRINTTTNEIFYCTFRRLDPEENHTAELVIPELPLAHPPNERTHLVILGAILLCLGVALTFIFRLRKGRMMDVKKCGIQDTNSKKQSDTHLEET
T1 sequence (Q9NZQ7 with tags, fused parts or gaps): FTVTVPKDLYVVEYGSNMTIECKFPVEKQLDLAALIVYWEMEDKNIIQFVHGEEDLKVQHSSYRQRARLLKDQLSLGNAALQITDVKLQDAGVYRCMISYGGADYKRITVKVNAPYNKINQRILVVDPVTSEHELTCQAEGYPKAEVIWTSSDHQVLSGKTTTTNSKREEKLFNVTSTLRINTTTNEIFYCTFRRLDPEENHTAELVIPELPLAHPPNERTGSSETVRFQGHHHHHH

| Compound | IC50 (Hu PD-L1/PD-1) | IC50 (Human PD-L1/PD-1; [1]) | IC50 (Hu PD-L1/PD-1; [2]) | IC50 (Human PD-L1/PD-1; [3]) |
| --- | --- | --- | --- | --- |
| CCCC[C@H]1C(=O)N(C)[C@@H](CCCC)C(=O)N[C@@H](CCCNC(=N)N)C(=O)N[C@H](C(=O)NCC(N)=O)CSCC(=O)N[C@@H](Cc2ccc(O)cc2)C(=O)N(C)[C@@H](C)C(=O)N[C@@H](CC(N)=O)C(=O)N2CCC[C@H]2C(=O)N[C@@H](Cc2cnc[nH]2)C(=O)N[C@@H](CC(C)C)C(=O)N(C)CC(=O)N[C@@H](Cc2c[nH]c3ccccc23)C(=O)N[C@@H](CO)C(=O)N[C@@H](Cc2c[nH]c3ccccc23)C(=O)N1C [Compound No. 30] | 3 nM | 5 nM | – | – |
| CCCC[C@H]1C(=O)N(C)[C@@H](CCCC)C(=O)N[C@@H](CCCNC(=N)N)C(=O)N[C@H](C(=O)NCC(N)=O)CSCC(=O)N[C@@H](Cc2ccc(Cl)cc2)C(=O)N(C)[C@@H](C)C(=O)N[C@@H](CC(N)=O)C(=O)N2CCC[C@H]2C(=O)N[C@@H](Cc2cnc[nH]2)C(=O)N[C@@H](CC(C)C)C(=O)N(C)CC(=O)N[C@@H](Cc2c[nH]c3ccccc23)C(=O)N[C@@H](CO)C(=O)N[C@@H](Cc2c[nH]c3ccccc23)C(=O)N1C [Compound No. 33] ({CH2CO}-[Phe(4-Cl)][NMeA]NPHL[Sar]WSW[NMeNle][NMeNle]RCG-NH2; thioether N-14) | 7 nM | 9 nM | – | – |
| CCCC[C@H]1C(=O)N(C)[C@@H](CCCC)C(=O)N[C@@H](CCCNC(=N)N)C(=O)NC(C(=O)NCC(N)=O)CSCC(=O)N[C@@H](Cc2ccsc2)C(=O)N(C)[C@@H](C)C(=O)N[C@@H](CC(N)=O)C(=O)N2CCC[C@H]2C(=O)N[C@@H](Cc2cnc[nH]2)C(=O)N[C@@H](CC(C)C)C(=O)N(C)CC(=O)N[C@@H](Cc2c[nH]c3ccccc23)C(=O)N[C@@H](CO)C(=O)N[C@@H](Cc2c[nH]c3ccccc23)C(=O)N1C (stereo partly drawn) [Compound No. 40] ({CH2CO}-[3Thi][NMeA]NPHL[Sar]WSW[NMeNle][NMeNle]R[ξC]G-NH2; thioether N-14) | 20 nM | 9 nM | – | – |
| CCCC[C@H]1C(=O)N(C)[C@@H](CCCC)C(=O)N[C@@H](CCCNC(=N)N)C(=O)N[C@H](C(=O)NCC(N)=O)CSCC(=O)N[C@@H](Cc2ccccc2)C(=O)N(C)[C@@H](C)C(=O)N[C@@H](CC(N)=O)C(=O)N2CCC[C@H]2C(=O)N[C@@H](Cc2c[nH]cn2)C(=O)N[C@@H](CC(C)C)C(=O)N[C@@H](CCN)C(=O)N[C@@H](Cc2c[nH]c3ccccc23)C(=O)N[C@@H](CO)C(=O)N[C@@H](Cc2c[nH]c3ccccc23)C(=O)N1C [Compound No. 52] | 108 nM | 24 nM | – | – |
| CCCC[C@H]1C(=O)N(C)[C@@H](CCCC)C(=O)N[C@@H](CCCNC(=N)N)C(=O)N[C@H](C(=O)NCC(N)=O)CSCC(=O)N[C@@H](Cc2ccccc2)C(=O)N(C)C(C)C(=O)N[C@@H](CC(N)=O)C(=O)N2CCC[C@H]2C(=O)N[C@@H](Cc2cnc[nH]2)C(=O)N[C@@H](CC(C)C)C(=O)N[C@@H](Cc2cnc[nH]2)C(=O)N[C@@H](Cc2c[nH]c3ccccc23)C(=O)N[C@@H](CO)C(=O)N[C@@H](Cc2c[nH]c3ccccc23)C(=O)N1C (stereo partly drawn) [Compound No. 53] ({CH2CO}-F[ξNMeA]NPHLHWSW[NMeNle][NMeNle]RCG-NH2; thioether N-14) | 47 nM | 34 nM | – | – |
| CCCC[C@H]1C(=O)N(C)[C@@H](CCCC)C(=O)N[C@@H](CCCNC(=N)N)C(=O)N[C@H](C(=O)NCC(N)=O)CSCC(=O)N[C@@H](Cc2ccccc2)C(=O)N(C)[C@@H](C)C(=O)N[C@@H](CC(N)=O)C(=O)N2CCC[C@H]2C(=O)N[C@@H](Cc2cnc[nH]2)C(=O)N[C@@H](CC(C)C)C(=O)N2CCC[C@H]2C(=O)N[C@@H](Cc2c[nH]c3ccccc23)C(=O)N[C@@H](CO)C(=O)N[C@@H](Cc2c[nH]c3ccccc23)C(=O)N1C [Compound No. 55] ({CH2CO}-F[NMeA]NPHLPWSW[NMeNle][NMeNle]RCG-NH2; thioether N-14) | 3 nM | 4 nM | – | – |
| CCCC[C@H]1C(=O)N(C)[C@@H](CCCC)C(=O)N[C@@H](CCCNC(=N)N)C(=O)N[C@H](C(=O)NCC(N)=O)CSCC(=O)N[C@@H](Cc2ccccc2)C(=O)N(C)[C@@H](C)C(=O)N[C@@H](CC(N)=O)C(=O)N2CCC[C@H]2C(=O)N[C@@H](Cc2cnc[nH]2)C(=O)N[C@@H](CC(C)C)C(=O)N(C)CC(=O)N[C@@H](Cc2c[nH]c3ccccc23)C(=O)N[C@H](CC(N)=O)C(=O)N[C@@H](Cc2c[nH]c3ccccc23)C(=O)N1C [Compound No. 58] ({CH2CO}-F[NMeA]NPHL[Sar]W[dN]W[NMeNle][NMeNle]RCG-NH2; thioether N-14) | > 10000 nM | 8980 nM | – | – |
| CCCC[C@H]1C(=O)N(C)CC(=O)N[C@@H](CC(=O)O)C(=O)N[C@@H](C(C)C)C(=O)N(C)[C@@H](C)C(=O)N[C@@H](Cc2ccc(O)cc2)C(=O)N(C)CC(=O)N[C@@H](Cc2c[nH]c3ccccc23)C(=O)N[C@@H](Cc2ccc(O)cc2)C(=O)N[C@@H](CC(C)C)C(=O)N[C@H](C(=O)NCC(N)=O)CSCC(=O)N[C@@H](Cc2ccccc2)C(=O)N(C)[C@@H](Cc2ccccc2)C(=O)N1C [Compound No. 81] (HELM PEPTIDE1{[O=C(C[*:3])[*:2]].F.[meF].[CCCC[C@@H](C(=O)[*:2])N(C)[*:1]].[Sar].D.V.[meA].Y.[Sar].W.Y.L.C.G.[am]}$PEPTIDE1,PEPTIDE1,1:R3-14:R3$$$V2.0) | – | – | > 10000 nM | > 10000 nM |

Results, then the compound that gave them:

| IC50 (Hu PD-L1/PD-1) | IC50 (Human PD-L1/PD-1; [1]) | IC50 (Hu PD-L1/PD-1; [2]) | IC50 (Human PD-L1/PD-1; [3]) | Compound |
| --- | --- | --- | --- | --- |
| – | – | > 10000 nM | > 10000 nM | CCCC[C@H]1C(=O)N(C)CC(=O)N[C@@H](CC(=O)O)C(=O)N[C@@H](C(C)C)C(=O)N(C)[C@@H](Cc2ccccc2)C(=O)N[C@@H](Cc2ccc(O)cc2)C(=O)N(C)CC(=O)N[C@@H](Cc2c[nH]c3ccccc23)C(=O)NC(Cc2ccc(O)cc2)C(=O)N[C@@H](CC(C)C)C(=O)N[C@H](C(=O)NCC(N)=O)CSCC(=O)N[C@@H](Cc2ccccc2)C(=O)N[C@@H](Cc2ccccc2)C(=O)N1C (stereo partly drawn) [Compound No. 74] ({CH2CO}-FF[NMeNle][Sar]DV[NMeF]Y[Sar]W[ξY]LCG-NH2; thioether N-13) |
| – | – | > 10000 nM | > 10000 nM | CCCC[C@@H]1NC(=O)[C@H](Cc2ccccc2)N(C)C(=O)[C@H](Cc2ccccc2)NC(=O)CSC[C@@H](C(=O)NCC(N)=O)NC(=O)[C@H](CC(C)C)NC(=O)[C@H](Cc2ccc(O)cc2)NC(=O)[C@H](Cc2c[nH]c3ccccc23)NC(=O)CN(C)C(=O)[C@H](Cc2ccc(O)cc2)NC(=O)[C@H](Cc2ccccc2)N(C)C(=O)[C@H](C(C)C)NC(=O)[C@H](CC(=O)O)NC(=O)CN(C)C1=O [Compound No. 76] (HELM PEPTIDE1{[O=C(C[*:3])[*:2]].F.[meF].[Nle].[Sar].D.V.[meF].Y.[Sar].W.Y.L.C.G.[am]}$PEPTIDE1,PEPTIDE1,1:R3-14:R3$$$V2.0) |
| – | – | 16 nM | 24 nM | CCCC[C@H]1C(=O)N(C)[C@@H](C)C(=O)N[C@@H](CC(=O)O)C(=O)N[C@@H](C(C)C)C(=O)N(C)[C@@H](Cc2ccccc2)C(=O)N[C@@H](Cc2ccc(O)cc2)C(=O)N(C)CC(=O)N[C@@H](Cc2c[nH]c3ccccc23)C(=O)N[C@@H](Cc2ccc(O)cc2)C(=O)N[C@@H](CC(C)C)C(=O)N[C@H](C(=O)NCC(N)=O)CSCC(=O)N[C@@H](Cc2ccccc2)C(=O)N(C)[C@@H](Cc2ccccc2)C(=O)N1C [Compound No. 77] (HELM PEPTIDE1{[O=C(C[*:3])[*:2]].F.[meF].[CCCC[C@@H](C(=O)[*:2])N(C)[*:1]].[meA].D.V.[meF].Y.[Sar].W.Y.L.C.G.[am]}$PEPTIDE1,PEPTIDE1,1:R3-14:R3$$$V2.0) |
| – | – | 73 nM | 25 nM | CCCC[C@H]1C(=O)N(C)CC(=O)N[C@@H](CC(=O)O)C(=O)N[C@@H](C(C)C)C(=O)N(C)[C@@H](Cc2ccccc2)C(=O)N[C@@H](Cc2ccc(O)cc2)C(=O)N(C)CC(=O)N[C@@H](Cc2c[nH]c3ccccc23)C(=O)N[C@@H](Cc2ccc(O)cc2)C(=O)N[C@@H](C)C(=O)N[C@H](C(=O)NCC(N)=O)CSCC(=O)N[C@@H](Cc2ccccc2)C(=O)N(C)[C@@H](Cc2ccccc2)C(=O)N1C [Compound No. 87] (HELM PEPTIDE1{[O=C(C[*:3])[*:2]].F.[meF].[CCCC[C@@H](C(=O)[*:2])N(C)[*:1]].[Sar].D.V.[meF].Y.[Sar].W.Y.A.C.G.[am]}$PEPTIDE1,PEPTIDE1,1:R3-14:R3$$$V2.0) |

— patent publication US9850283B2, “Macrocyclic inhibitors of the PD-1/PD-L1 and CD80(B7-1)/PD-L1 protein/protein interactions” (BRISTOL-MYERS SQUIBB COMPANY, priority 2013, dated 2017)
